In brackets after ≈: the same amount, converted by molar mass.
Key:
Acinetobacter baumannii [1] = test: Antibacterial activity against Acinetobacter baumannii CLB21655 assessed as bacterial growth inhibition incubated for 18 to 20 hrs by microbroth dilution method; format: functional; details: time 18-20 hrs
Acinetobacter baumannii [2] = test: Antibacterial activity against Acinetobacter baumannii CLB21655 incubated for 18 to 20 hrs in presence of 50% human serum by microbroth dilution method; format: functional; details: time 18-20 hrs
Acinetobacter baumannii [3] = test: Antibacterial activity against Acinetobacter baumannii CLB21655 incubated for 18 to 20 hrs in presence of 50% mouse serum by microbroth dilution method; format: functional; details: time 18-20 hrs
Acinetobacter baumannii [4] = test: Antibacterial activity against Acinetobacter baumannii CLB21655 incubated for 18 to 20 hrs in presence of 10% mouse serum by microbroth dilution method; format: functional; details: time 18-20 hrs
Acinetobacter baumannii [5] = test: Antibacterial activity against wild type Acinetobacter baumannii; format: functional
[6] = Lipophilicity, logD of compound at pH 7 by HPLC analysis; format: physicochemical; details: buffer
[7] = Inhibition of wildtype Acinetobacter baumannii MsbA preincubated for 30 mins followed by ATP addition and measured after 1 hrs by Transcreener ADP2 F1 assay
[8] = AUC (0 to infinity) in male C57BL/6 mouse at 300 mg/kg, sc measured after 24 hrs by LC-MS/MS analysis; format: ADME, organism-based; details: in vivo
Acinetobacter baumannii [9] = test: Selectivity ratio of MIC95 for antibacterial activity against Acinetobacter baumannii ATCC19606 in the presence of 10% human serum to MIC95 for antibacterial activity against Acinetobacter baumannii ATCC19606; format: functional
[10] = (§1) Cytotoxicity against GFP fused human MT4 cells cultured under serum free condition for 24 hrs by CellTiter-Glo assay; format: toxicity, cell-based; details: GFP fused MT4 cells
Acinetobacter baumannii [11] = test: Antibacterial activity against Acinetobacter baumannii ATCC19606 assessed as bacterial growth inhibition incubated for 18 to 20 hrs by microbroth dilution method; format: functional; details: time 18-20 hrs
[12] = Plasma protein binding in C57BL/6 mouse assessed as free fraction at 1000 to 100000 ng/ml by equilibrium dialysis based LC-MS/MS analysis; format: ADME, cell-free; details: dose 1000-100000 ng/ml
Acinetobacter baumannii [13] = test: Antibacterial activity against Acinetobacter baumannii ATCC19606 incubated for 18 to 20 hrs in presence of 10% human serum by microbroth dilution method; format: functional; details: time 18-20 hrs
[14] = Cmax in male C57BL/6 mouse at 300 mg/kg, sc measured after 24 hrs by LC-MS/MS analysis; format: ADME, organism-based; details: in vivo
Acinetobacter baumannii [15] = test: Selectivity ratio of MIC95 for antibacterial activity against Acinetobacter baumannii ATCC19606 in the presence of 1% human serum to MIC95 for antibacterial activity against Acinetobacter baumannii ATCC19606; format: functional
Acinetobacter baumannii [16] = test: Antibacterial activity against Acinetobacter baumannii ATCC19606 incubated for 18 to 20 hrs in presence of 1% of human serum by microbroth dilution method; format: functional; details: time 18-20 hrs
MT4 = test: as §1; format: toxicity, cell-based; details: mt4, 24 h, time 24 hrs
Acinetobacter baumannii [17] = test: Antibacterial activity against Acinetobacter baumannii CLB21655 infected in female DBA mouse blood stream infection model assessed as reduction in bacterial burden in spleen at 200 mg/kg, sc pre-infected with bacteria for 0.5 hrs followed by once daily compound administration and measured after 8 hrs (reference value: 5.85 log10CFU/g); format: functional
[18] = Plasma protein binding in C57BL/6 mouse at 1000 to 100000 ng/ml by equilibrium dialysis based LC-MS/MS analysis; format: ADME, cell-free; details: dose 1000-100000 ng/ml, read-out: PPB (converted)
Acinetobacter baumannii [19] = test: Antibacterial activity against Acinetobacter baumannii clinic isolates; format: functional

O=C(O)c1cc(CN2CC(Oc3ccc(NS(=O)(=O)c4cnn(-c5ccc(F)cc5)c4)c(C(=O)O)c3)C2)ccc1NS(=O)(=O)CCCCCc1ccc(Cl)cc1
MIC (Acinetobacter baumannii [1]): 0.024 µM (≈ 0.0198 µg/mL) | MIC (Acinetobacter baumannii [2]): 25 µM | MIC (Acinetobacter baumannii [3]): 25 µM | MIC (Acinetobacter baumannii [4]): 3.12 µM

O=C(Nc1sc2c(c1C(=O)O)CCCC2)c1ccc(Cl)cc1
MIC (Acinetobacter baumannii [5]): 60 µM (≈ 20.1 µg/mL)

O=C(O)c1cc(CN2CC(Oc3ccc(NS(=O)(=O)c4ccc(-c5ccc(F)cc5)s4)c(C(=O)O)c3)C2)ccc1NS(=O)(=O)c1cnn(-c2ccc(F)cc2)c1
logD [6]: 1.8 | EC50 [7]: 0.0073 µM | AUC [8]: 7970 µM·h | Selectivity ratio (Acinetobacter baumannii [9]): 260 | EC50 at 24 h [10]: > 42 µM | MIC95 (Acinetobacter baumannii [11]): 0.024 µM (≈ 0.0197 µg/mL) | Fu [12]: 0.6% | MIC95 (Acinetobacter baumannii [13]): 6.25 µM | Cmax [14]: 502 µM

O=C(CCCOc1ccc(NS(=O)(=O)CCc2ccc(F)cc2)c(C(=O)O)c1)Nc1ccc(NS(=O)(=O)CCc2ccc(F)cc2)c(C(=O)O)c1
Selectivity ratio (Acinetobacter baumannii [15]): 8 | EC50 [7]: 1.14 µM | MIC95 (Acinetobacter baumannii [16]): 25 µM | Activity (MT4): Non-Toxic | MIC95 (Acinetobacter baumannii [11]): 3.12 µM (≈ 2.33 µg/mL)

O=C(O)c1cc(CN2CC(Oc3ccc(NS(=O)(=O)N4CCOC(c5ccc(F)cc5)C4)c(C(=O)O)c3)C2)ccc1NS(=O)(=O)CCCc1ccc(F)cc1 (racemic)
MIC (Acinetobacter baumannii [1]): 0.098 µM (≈ 0.0785 µg/mL) | MIC (Acinetobacter baumannii [2]): 12.5 µM | MIC (Acinetobacter baumannii [3]): > 100 µM | MIC (Acinetobacter baumannii [4]): 6.25 µM

O=C(O)c1cc(CN2CC(Oc3ccc(NS(=O)(=O)N4CCOC(c5ccc(F)cc5)C4)c(C(=O)O)c3)C2)ccc1NS(=O)(=O)CCCCc1ccc(Cl)cc1 (single isomer, unassigned)
MIC (Acinetobacter baumannii [1]): 0.049 µM (≈ 0.0407 µg/mL) | MIC (Acinetobacter baumannii [2]): 12.5 µM | MIC (Acinetobacter baumannii [3]): 50 µM | MIC (Acinetobacter baumannii [4]): 3.12 µM

CCCCc1ccc(S(=O)(=O)Nc2ccc(NC(=O)CCC(=O)Nc3ccc(NS(=O)(=O)c4ccc(CCCC)cc4)c(C(=O)O)c3)cc2C(=O)O)cc1
Selectivity ratio (Acinetobacter baumannii [15]): 202 | logD [6]: 2.1 | Activity (Acinetobacter baumannii [17]): 6.04 log10CFU/g | EC50 [7]: 0.049 µM | MIC95 (Acinetobacter baumannii [16]): 11.5 µM | EC50 at 24 h [10]: > 42 µM | MIC95 (Acinetobacter baumannii [11]): 0.057 µM (≈ 0.0444 µg/mL) | fraction unbound [18]: < 0.001

CN1C(=O)[C@H](CCCCN)NC(=O)[C@H](CCCN)NCc2cccnc2Sc2cccc(-c3ccc(C(=O)O)cc3)c2CNC(=O)[C@@H]1Cc1c[nH]c2ccccc12 [ZOSURABALPIN]
MIC (Acinetobacter baumannii [5]): 0.3 µM (≈ 0.237 µg/mL) | MIC (Acinetobacter baumannii [19]): 0.12 µg/mL (≈ 0.152 µM)

CCCCc1ccc(S(=O)(=O)Nc2ccc(NC(=O)Nc3ccc(NS(=O)(=O)c4ccc(CCCC)cc4)c(C(=O)O)c3)cc2C(=O)O)cc1
logD [6]: 2.3 | MIC95 (Acinetobacter baumannii [11]): 2.21 µM (≈ 1.6 µg/mL)

O=C(O)c1cc(CNC2CN(Cc3ccc(NS(=O)(=O)c4cnn(-c5ccc(Cl)cc5)c4)c(C(=O)O)c3)C2)ccc1NS(=O)(=O)c1cnn(-c2ccc(Cl)cc2)c1
EC50 [7]: 0.887 µM | Selectivity ratio (Acinetobacter baumannii [9]): 8 | EC50 at 24 h [10]: > 42 µM | MIC95 (Acinetobacter baumannii [11]): 0.391 µM (≈ 0.333 µg/mL) | MIC95 (Acinetobacter baumannii [13]): 3.12 µM

C[C@@H]1[C@H](Oc2ccc(NS(=O)(=O)c3cnn(-c4ccc(Cl)cc4)c3)c(C(=O)O)c2)CN1Cc1ccc(NS(=O)(=O)c2cnn(-c3ccc(Cl)cc3)c2)c(C(=O)O)c1 (racemic)
EC50 [7]: 0.082 µM | Selectivity ratio (Acinetobacter baumannii [9]): 128 | EC50 at 24 h [10]: > 42 µM | MIC95 (Acinetobacter baumannii [11]): 0.049 µM (≈ 0.0418 µg/mL) | MIC95 (Acinetobacter baumannii [13]): 6.25 µM

— ChEMBL document CHEMBL5584343, “Cerastecin Inhibition of the Lipooligosaccharide Transporter MsbA to Combat Acinetobacter baumannii: From Screening Impurity to In Vivo Efficacy” (J Med Chem, 2024)
